Test results from patent US9814732B2, “Ulipristal acetate for prevention and treatment of breast tumors” (LABORATOIRE HRA-PHARMA, priority 2012, dated 2017).

What was measured:
T-47D cells [1] = assay: Apoptosis, sub-G1 quantification by flow cytometry in T-47D cells; assay type: cell-based, human; conditions: 48 h, 100 nM
Description: (§1) After seeding, cells were cultured for 24 h in serum and phenol red free medium. Then treatments were carried out in a phenol red free medium containing 5% dextran-charcoal stripped serum. Cells were treated with P or DEX (100 nM), alone or in combination with UPA, RU (1 nM to 1 μM) or CDB-3877 (100 nM). Control cells were treated with ethanol, at […] 1:1000 final ethanol concentration alone as vehicle or E2 (10 nM).
(§2) After 96 h or 48 h of hormonal treatment, respectively, for HBE or MCF-7 and T-47D cells, cells were washed in PBS, matrix dissociated with accutase enzyme (PAA laboratory, Les Mureaux, France), and centrifuged 5 minutes at 1350 rpm. Cells were fixed and frozen at −20° C. in 70% ethanol. Before analysis, cells were washed in PBS and stained with 10 μg/ml propidium iodide in PBS (containing 0.835 U/ml RNase A) (Sigma, St Quentin Fallavier, France). For each sample at least 10 000 cells were counted in a BD LSR II flow cytometer (BD Biosciences, Le Pont de Claix, France). After gating out doublets and debris, cycle distribution was analyzed using the ModFit LT software (Verity Software House, USA).

[2] = Hormone concentrations in serum of pellet-treated athymic mice; assay type: in vivo; conditions: female, NMRI nu/nu athymic, mouse, other: steroid pellets grafted onto the neck, 20 mg pellet (P from day 14, UPA from day 1), day 28, read-out: concentration in mice serum (mean±SEM)
Description: Four weeks old ovariectomized female NMRInu/nu 20 athymic mice were purchased from Janvier laboratory (Le Genest Saint Isle, France). Breast tissues samples were obtained from 6 women (aged 29-42 years). Human mammary gland tissue was cut into 2×2×2 mm fragments and 4 fragments were then subcutaneously xenografted onto the back of 4 mice per group. Four treatment groups were performed: control, E2, E2+P and E2+P+UPA. Treatments were administered by grafting steroid pellets onto the neck of each mouse. The experimental conditions were initially determined by using a dose range of hormones mixed with cholesterol into the pellets. Blood sample assays were performed after 2 weeks and 4 weeks of treatment to measure plasmatic hormonal concentrations. Finally, the dose of 0.3 mg for E2 and 20 mg for P and UPA were used, as it provides the expected blood concentrations. For the control groups, pellets containing only cholesterol were used. To reproduce menstrual cycle conditions, mice were grafted on the first day of experiment with cholesterol, E2 and/or UPA containing pellets and on the fourteen day with cholesterol or progesterone containing pellets in control and E2 groups, or in E+P and E2+P+UPA groups, respectively. Twenty eight days after the start of experiment, mice were sacrificed. Blood was collected for each mouse, and serum was frozen at −20° C. until hormone concentrations
Estradiol was measured by radioimmunoassay using Clinical Assays Estradiol-2 (Sorin Biomedica Diagnostics SpA, Saluggia, Italia). Progesterone levels were evaluated by UPLC-MSMS using Acquity UPLC and Quattro Premier XE (Waters, Milford Mass., USA).
UPA concentrations were measured using LC-MS/MS technique by MPI Research (State College, Pa., USA).

PR = molecular target: T1, PR (Homo sapiens, UniProt P06401); assay: MMTV-Luc reporter gene transactivation in HBE cells (MMTV-Luc alone); assay type: cell-based; conditions: P 100 nM, p<0.05
T1 sequence (P06401 1-933): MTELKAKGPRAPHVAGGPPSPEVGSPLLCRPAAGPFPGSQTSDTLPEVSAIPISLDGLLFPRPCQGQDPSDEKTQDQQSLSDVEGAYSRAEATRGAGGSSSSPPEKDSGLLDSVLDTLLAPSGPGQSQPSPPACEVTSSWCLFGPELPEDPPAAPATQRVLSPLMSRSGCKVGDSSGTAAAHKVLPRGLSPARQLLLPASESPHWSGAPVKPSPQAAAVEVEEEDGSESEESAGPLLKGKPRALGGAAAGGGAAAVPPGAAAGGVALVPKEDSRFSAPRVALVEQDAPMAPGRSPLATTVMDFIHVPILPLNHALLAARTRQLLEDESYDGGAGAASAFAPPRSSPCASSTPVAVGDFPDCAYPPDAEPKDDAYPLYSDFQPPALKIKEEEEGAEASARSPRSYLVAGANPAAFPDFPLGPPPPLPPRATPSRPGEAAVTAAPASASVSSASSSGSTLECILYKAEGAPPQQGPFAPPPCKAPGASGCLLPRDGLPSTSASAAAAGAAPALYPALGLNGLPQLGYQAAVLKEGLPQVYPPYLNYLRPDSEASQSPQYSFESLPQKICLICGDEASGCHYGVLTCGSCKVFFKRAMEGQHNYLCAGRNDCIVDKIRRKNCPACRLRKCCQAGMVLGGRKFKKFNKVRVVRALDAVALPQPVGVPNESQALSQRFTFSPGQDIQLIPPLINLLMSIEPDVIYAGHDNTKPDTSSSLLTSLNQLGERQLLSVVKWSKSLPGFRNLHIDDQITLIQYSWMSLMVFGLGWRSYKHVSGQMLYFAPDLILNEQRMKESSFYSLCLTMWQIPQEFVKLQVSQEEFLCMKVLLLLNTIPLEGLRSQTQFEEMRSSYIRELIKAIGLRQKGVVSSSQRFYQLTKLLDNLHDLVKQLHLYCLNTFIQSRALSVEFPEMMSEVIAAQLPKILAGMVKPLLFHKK
Description: T-47D and MCF-7 cell lines were respectively maintained in RPMI 1640 and in DMEM medium supplemented with 10% fetal calf serum (PAA Laboratory, Les Mureaux, France). […] Normal human breast epithelial cell (HBE) primary cultures were obtained from 20 women (aged 17-50 years). […] HBE cells were maintained in HAM F10 medium (PAA Laboratory, Les Mureaux, France) containing hydrocortisone (5 ng/ml), Triiodo-L-thyronine (6.5 ng/ml), choleratoxin (10 ng/ml), transferrin (5 mg/ml), insulin (0.016 U/ml), epidermal growth factor (10 ng/ml) (Sigma, St Quentin Fallavier, France) and 5% human serum (Etablissement Français du Sang). […]
Cells were transfected with reporter gene plasmids containing glucocorticoid and progesterone responsive elements (GRE/PRE): 1) the MMTV-Luc is a Mouse Mammary Tumor Virus Long Terminal Repeat promoter containing one GRE/PRE palindrome and three GRE/PRE hemi-palindromes upstream to firefly luciferase gene in pFC31 vector, 2) the GRELuc contains six copies of GRE/PRE palindrome upstream to firefly luciferase gene in pBL vector. […] At the end of the experiment, cells were lysed and luciferase activity was determined using the Luciferase Assay System (Promega, Charbonnières-les-bains, France). Beta galactosidase activity was assessed using the Galacto Star kit (Applied Biosystems, Courtaboeuf, France) to normalize luciferase activity data.

HBE cells [3] = assay: Apoptosis, sub-G1 quantification by flow cytometry in HBE cells; assay type: cell-based, human; conditions: 96 h, 100 nM
Description: as §1, §2

[4] = test system: PR target genes (FASN, cyclin A, BCL2, ALPL); assay: qRT-PCR mRNA expression of PR target genes in HBE cells; assay type: cell-based, human; conditions: P and/or UPA 100 nM, E2 10 nM
Description: as §1
(§3) Total RNA was extracted using TriZOL Reagent (Invitrogen, Cergy-Pontoise, France).
(§4) 2 μg of total RNA was subjected to reverse transcription (RT) using random primers for 1 h at 37° C. 2 μl of RT product was diluted (1:10) and subjected to quantitative PCR using sequence specific primers (300 nM) and Brillant SYBR GREEN QPCR master mix (Fermentas, Saint-Rémy-lès-Chevreuse, France) on an Mx3000P apparatus (Agilent Technologies, Massy, France). Conditions were 1 cycle at 95° C. for 10 min followed by 40 cycles at 95° C. for 30 sec, 60° C. for 1 min and 72° C. for 30 sec. Gene expression values were normalized to the housekeeping gene 36B4. Time of steroid treatment was chosen to get the optimal stimulation for a given gene. ALPL and G0S8 mRNA were analyzed after 6 h of treatment. IEX-1, FASN, and BCL2 were analyzed after 24 h of treatment. Cyclin A mRNA was analyzed after 24 h for GR responses or 48 h for PR responses.

T-47D cells [5] = assay: Tritiated thymidine incorporation (proliferation) in T-47D cells; assay type: cell-based, human; conditions: 48 h, 100 nM
Description: as §1
(§5) After 24 h of hormonal treatment, cells were incubated with [methyl-1 3H] thymidine (Perkin Elmer, Courtaboeuf, France) for 48 h or 20 h for KBE or cancer cells, respectively at 37° C. After incubation cells were washed twice with PBS 1× and once with 5% trichloroacetic acid (TCA). Cells were incubated in 5% TCA for 15 min at 4° C. and lysed in NaOH 0.1 N for 30 min at 37° C. The total cell lysate was added to 5 ml of Ecolite scintillation liquid (MP biomedical, Illkirch, France) and radioactivity was counted with a β-counter HIDEX 300SL (ScienceTec, Courtaboeuf, France).

[6] = test system: PR target genes (FASN, cyclin A, BCL2, ALPL); assay: qRT-PCR mRNA expression of PR target genes in T-47D cells; assay type: cell-based, human; conditions: P and/or UPA 100 nM
Description: as §1, §3, §4

HBE cells [7] = assay: Tritiated thymidine incorporation (proliferation) in HBE cells; assay type: cell-based, human; conditions: 96 h, 100 nM
Description: as §1, §5

Q: For `CC(=O)[C@H]1CC[C@H]2[C@@H]3CCC4=CC(=O)CC[C@]4(C)[C@H]3CC[C@]12C` [P, progesterone], which “cell apoptosis (sub-G1 percentage), compound alone” value (T-47D cells [1]) is on record?
A: increased the percentage of sub-G1 cells

Q: And the concentration at 28 days [2]?
A: 13.1 ± 1.14 ng/mL

Q: What about the “luciferase expression (MMTV-Luc)” value (PR) of the same compound?
A: 1.38±0.11 control fold induction

Q: And the “cell apoptosis (sub-G1 percentage), compound alone” value (HBE cells [3])?
A: intense pro-apoptotic effect

Q: What about the “BCL2 mRNA expression (PR response)” value ([4]; 24 h) of the same compound?
A: decrease of BCL2 mRNA expression by P

Q: And the “FASN mRNA expression” value ([4]; 24 h)?
A: induction of FASN mRNA expression

Q: And the “cyclin A mRNA expression (PR response)” value ([4]; 48 h)?
A: down regulated cyclin A mRNA expression

Q: What about the “cell proliferation ([3H] thymidine incorporation), compound alone” value (T-47D cells [5]) of the same compound?
A: anti-proliferative activity

Q: And the “ALPL mRNA expression” value ([6]; 6 h)?
A: strong P mediated induction of ALPL transcript

Q: What about the “FASN mRNA expression” value ([6]; 24 h) of the same compound?
A: induction of FASN mRNA expression

Q: And the “BCL2 mRNA expression (PR response)” value ([6]; 24 h, p<0.01)?
A: decrease of BCL2 mRNA expression by P

Q: What about the “cyclin A mRNA expression (PR response)” value ([6]; 48 h) of the same compound?
A: down regulated cyclin A mRNA expression

Q: And the “cell proliferation ([3H] thymidine incorporation), compound alone” value (HBE cells [7])?
A: anti-proliferative effect
